Entries after “also recorded” stand apart in the source; their conditions may differ. Read-outs that look alike come from different tables or passages of the source.
How the values were obtained:
pSTAT3 and MYC = assay: Western blot of pSTAT3 and MYC in adult pig articular chondrocytes; type: cell-based; settings: for levels of MYC / levels of pSTAT3: adult pig articular chondrocytes, treated vs untreated, relative to histone H3
Excerpt: Only early passages of chondrocytes (passage 0-2) were used for experimentation to avoid de-differentiation and loss of cartilage phenotype (Wu et al., 2014). Cartilage explants were made using 1, 2 or 8 mm biopsy punch and wet weight of each explant determined prior to experimentation. For cell isolation cartilage tissue was digested as described previously (Wu et al., 2015). Postnatal paraffin embedded joint and growth plate specimens were kindly donated by Dr Marcel Karperien from the University of Twente (Netherlands) and Dr Nick Bernthal from University of California Los Angeles. All donated material was anonymous and carried no personal identifiers. Cell culture reagents were purchased from Life Technologies, Inc. (Grand Island, N.Y.). Growth factors LIF, OSM, IL-6, TNF-α, IL-1β were purchased from Life Technologies, Inc (Grand Island, N.Y.). STATTIC, 10058-F4, SCl44 hydrochloride, and CP-690550 were purchased from Sigma Aldrich (St. Louis, Mo.). RCGD 423 (N-(4-Bromophenyl)-4-phenyl-1,3-thiazol-2-amine) was synthesized and provided by MolPort (Riga, Latvia). Fetal, adult and pig chondrocytes were cultured in DMEM F12 medium containing 10% (vol/vol) fetal bovine serum and 1% Penicillin-Streptomycin (vol/vol) at 37° C. in a humidified atmosphere of 95% aid and 5% CO2. Media was replenished with DMEM F12 medium containing 1% (vol/vol) fetal bovine serum and 1% Penicillin-Streptomycin (vol/vol) once treatments were added. For 3-dimensional (3D) cell cultures adult human articular chondrocytes were incubated with or without RCGD 423 using 10% solution of Mebiol® hydrogel from Cosmo Bio (Carlsbad, Calif.) in X-vivo 15 serum free medium from Lonza (Walkersville, Md.) as described previously (Wu et al., 2014).
(§1) Treated and non-treated ells were lysed in RIPA Lysis and Extraction Buffer (Pierce, Rockford, Ill.) containing protease inhibitors (Pierce) followed by sonication with a 15-second pulse at a power output of 2 using the VirSonic 100 (SP Industries Company, Warminster, Pa.). Protein concentrations were determined by BCA protein assay (Pierce). Proteins were resolved with SDS-PAGE utilizing 4-15% Mini-PROTEAN TGX Precast Gels and transferred to Trans-Blot Turbo Transfer Packs with a 0.2-μm pore-size nitrocellulose membrane. The SDS-PAGE running buffer, 4-15% Mini-PROTEAN TGX Precast Gels, Trans-Blot Turbo Transfer Packs with a 0.2-μm pore-size nitrocellulose membrane were purchased from Biorad (Hercules, Calif.). Nitrocellulose membranes were blocked in 5% nonfat milk in 0.05% (v/v) Tween 20 (PBST) (Corning, Manassas, Va.). Membranes were then incubated with primary antibodies phospho-STAT3 (#9131), MYC (#5605), NF-κB p65 (#D14E12), pAKT (#9272) Histone 3 (#9715) from Cell Signaling, (Danvers, Mass.); MEK1/2 (ab70613) and p38 (ab795) from Abcam (Cambridge, Mass.) overnight. After washing in PBS containing 0.05% (v/v) Tween 20 (PBST), membranes were incubated with Goat anti-Rabbit IgG (H+L) Secondary Antibody (Thermo Scientific Rockford, Ill.). After washing, membranes were developed with the Clarity Western ECL Blotting Substrate (Hercules, Calif.).

[1] = tested on: MAPK, AKT, NF-κB pathways; assay: Western blot of MAPK, AKT and NF-κB signaling in adult pig articular chondrocytes; type: cell-based; settings: 24 hours
Description: (§2) FIGS. 30A-30B. […] (FIG. 30A) Adult pig articular chondrocytes were cultured for 24 hours with the indicated cytokines or RCGD 423 and the levels of pSTAT3 and MYC were measured with respect to histone H3. Representative data for other proteins in the MAPK (p38 and MEK1/2), AKT (phospho-AKT; pAKT) or NF-KB (NF-KB p65) are also shown. (FIG. 30B) Levels of transcription of genes indicative of a catabolic response were determined via quantitative PCR in adult pig articular chondrocytes treated with OSM, IL-6, TNF-α, LIF or RCGD 423. Data are represented at mean±SD.
(§3) Cartilage degeneration is generally considered a feed-forward process, in which small losses of chondrocytes result in microenvironmental changes including induction of an inflammatory response and other pro-catabolic events (Hunziker, 2002). In turn, these alterations in the joint milieu promote production of matrix degrading proteins including MMPs (collagenases) and proteins of the ADAMTS family (aggrecanases). LIF has been implicated in promoting this cycle of matrix destruction during the pathogenesis of osteoarthritis (Hui et al., 2000; Lotz et al., 1992), although its role in this process has been controversial. In order to better understand the mechanism of action of LIF, RCGD 423 and known pro-inflammatory cytokines in the promotion of degeneration, we stimulated adult pig articular chondrocytes with these molecules and quantitated the levels of activated downstream proteins that mediate the cellular signaling response (FIG. 30A).
as §1

[2] = tested on: MMP13, ADAMTS4 and ADAMTS5; assay: Quantitative PCR of catabolic genes in adult pig articular chondrocytes; type: cell-based
Description: as §2, §3
Total RNA was extracted using RNeasy Micro Kit (QIAGEN, Valencia, Calif.) according to the manufacturer's protocol. Quantitative reverse transcription PCR was performed using Bio-Rad T100 Thermal Cycler (Bio-Rad, Hercules, Calif.). Primer sequences are available upon request.

BMPR1B+ chondrocytes = assay: Retention of BMPR1B+ chondrocytes in culture (flow cytometry); type: cell-based, pig
Description: FIG. 35. RCGD 423 Preserves BMPR1B+ Chondrocytes in Culture. Adult pig chondrocytes were cultured in the presence of various cytokines or RCGD 423 and the number of cells expressing BMPR1B were quantitated using flow cytometry. Know mitogens for cartilage, including PDGF-BB and FGF2, promoted dramatic loss of BMPR1B^+ cells. In contrast, RCGD 423 and LIF acted to maintain cells with the BMPR1B+ phenotype.
BMPR1B+LIFR+ human adult articular chondrocytes were sorted using FACS and deposited in 96-well culture plates at density 10,000 cells per well in DMEM/F12 culture medium (Invitrogen) supplemented with 1% FBS. Growth factors or RCGD 423 were added at the time of plating. After 1, 3 and 7 days cultures were re-analyzed with FACS using an antibody against BMPR1B.

[3] = tested on: fetal articular cartilage explants; assay: Apoptosis / survival in fetal articular cartilage explants (TUNEL, flow cytometry); type: cell-based, human; settings: for fetal chondrocyte survival: Annexin V-FITC cell sorting; for apoptotic cells: fetal cartilage explants, inhibitor 24 hours
Description: (§4) FIGS. 26A-26J. LIF/STAT3/MYC signaling is prominent in fetal articular chondrocytes and can activate a fetal-like phenotype in adult cells. (FIG. 26A) Levels of phospho-STAT3 (pSTAT3) and MYC protein were quantitated in human fetal and adult articular chondrocytes relative to histone H3. (FIG. 26B) Effects of soluble LIF receptor (sLIFR) on MYC and pSTAT3 protein levels on fetal articular chondrocytes after 72 hours. (FIG. 26C) Detection of apoptotic cells using TUNEL staining and flow cytometry analysis of fetal articular cartilage explants cultured in the absence (control) or presence of a MYC (10058-F4) or STAT3 (STATTIC) inhibitor for 24 hours. (FIG. 26D) Quantification of proliferating cells via EdU incorporation in fetal articular cartilage explants and also by flow cytometry analysis for BrdU. Scale bars represent 100 μm. (FIG. 26E) Assessment of metabolic activity of human fetal articular chondrocytes cultured in the presence or absence of MYC or STAT3 inhibitors. (FIG. 26F) Migration capacity of fetal articular chondrocytes was assessed using a Transwell® assay in the absence or presence of MYC and STAT3 inhibitors. (FIG. 26G) Protein levels of MYC and pSTAT3 were measured in adult human articular chondrocytes with and without incubation with LIF. Data are shown normalized to histone H3. (FIG. 26H) Migratory capacity of adult human articular chondrocytes in a Transwell® assay measured in the presence or absence of LIF. (FIG. 26I) Single adult human articular chondrocytes were cultured with or without LIF for 5 weeks to allow detection of colony-forming cells. (FIG. 26J) Explants of adult pig articular cartilage were incubated with EdU in the presence or absence of LIF to detect proliferating cells. Scale bars represent 25 μm.
To assess the functional consequences of LIF signaling, explants of fetal cartilage were cultured with inhibitors of MYC or STAT3 (Schust et al., 2006) and then TUNEL stained; flow cytometry was used to quantitate the results of parallel experiments. […] MYC activity has been documented previously in cancer cell lines to regulate mitochondrial function (Fan et al., 2010). […]
TdT-mediated dUTP nick-end labeling (TUNEL) or EdU assays were performed by using in situ cell death detection kit (TUNEL, Roche Diagnostics GmbH, Germany) or Click-iT® Assay Kit obtained from Invitrogen (Carlsbad, Calif.), respectively, as described in the manufacturer's protocol. […] After staining sections were analyzed using fluorescent microscopy. Apoptosis was evaluated by flow cytometry with a Fortessa (BD Biosciences, San Jose, Calif.) cytometer using the Annexin V-FITC (Miltenyi Biotec, San Diego, Calif.) antibody. […]

fetal cartilage explants = assay: Proliferation (BrdU, EdU) in fetal cartilage explants; type: cell-based, human
Description: as §4, with “Data are shown normalized to histone H3.” left out, “(FIG. 26I) Single adult human articular chondrocytes were cultured with or without LIF for 5 weeks to allow detection of colony-forming cells. (FIG. 26J) Explants of adult pig articular cartilage were incubated with EdU in the presence or absence of LIF to detect proliferating cells. Scale bars represent 25 μm.” left out

[4] = tested on: human fetal articular chondrocytes; assay: Cellular metabolism (Seahorse), human fetal articular chondrocytes; type: cell-based
Description: The mitochondrial assay cellular oxygen consumption and mitochondrial function was carried out to measure basal respiration using XF24 instrument (Seahorse Biosciences) according to manufacturer instructions. Tested cells (100,000 cells per well) we plated into 24-well test plates 48 hours prior to experimentation. Oxygen consumption rates and extracellular acidification rates were measured every 10 minutes for up to 60 minutes (Rate 1-6).

[5] = tested on: fetal BMPR1B+ chondrocytes; assay: Clonogenic potential of fetal chondrocytes; type: cell-based, human
Excerpt: FIGS. 12A-12D. […] Cell sorting results for control (FIG. 12A), p-STAT3 inhibitor (FIG. 12B) and c-MYC inhibitor (FIG. 12C). y-axis: FSC (forward scatter). x-axis: increasing concentration of Annexin V-FITC. (FIG. 12D) Histogram depicting % clonogenic cells (fetal BMPR1B+ chondrocytes) under: control, p-STAT3 and c-MYC inhibitor conditons.
To test the ability of LIF to stimulate LIFR^+ cells and cause their activation in situ, we exposed human adult articular cartilage cells to high doses of LIF for 72 hours (FIG. 5A).
For clonal assays cartilage cells were sorted by FACS and deposited into 96-well culture plates at 1 cell/well in DMEM/F12 culture medium supplemented with 1% FCS with or without LIF or RCGD 423. After 4 weeks clones (colonies with 50 cells or more) were counted using light microscopy in at least 300 wells for each culture condition.

Compound | levels of MYC (pSTAT3 and MYC) | levels of pSTAT3 (pSTAT3 and MYC) | activation of AKT [1] | activation of the MAPK pathway [1] | transcription of matrix degrading enzymes (MMP13, ADAMTS4 and ADAMTS5) [2] | fetal chondrocyte survival [3] | apoptotic cells [3] | incorporation of BrdU and EdU (fetal cartilage explants) | glycolysis [4] | clonogenic / clonal potential of fetal chondrocytes [5] | other results
TNF-α | inhibit accumulation | inhibit accumulation | strong activation | strong activation | upregulation |  |  |  |  |  | increases in pSTAT3 and MYC in the presence of RCGD 423 (pSTAT3 and MYC; co-stimulation of cytokine and RCGD 423): completely suppressed; also recorded: prevents the increases; NF-κB protein [1]: increased
FGF2: known mitogen for cartilage |  |  |  |  |  |  |  |  |  |  | BMPR1B+ chondrocytes in culture (BMPR1B+ chondrocytes): dramatic loss
CCc1ccc(/C=C2/SC(=S)NC2=O)cc1 [10058-F4] |  |  |  |  |  | markedly reduced | strongly significant increases | greatly reduced | unaffected | markedly reduced | 
IL-6: IL-6 family cytokine | increase | increase | stimulated the activation | stimulated the activation | neither cytokine resulted in substantial transcriptional upregulation |  |  |  |  |  | 
O=[N+]([O-])c1ccc2c(c1)S(=O)(=O)C=C2 [STATTIC] |  |  |  |  |  | markedly reduced | strongly significant increases | greatly reduced | unaffected | dramatically reduced | clonogenic / clonal potential of fetal chondrocytes ([5]; listed as p-STAT3 inhibitor): markedly reduced

— patent US11072592B2, “Small molecules that enable cartilage rejuvenation” (The Regents of the University of California, priority 2015, dated 2021)
